Data from patent US20250134884A1, “METHOD AND PHARMACEUTICAL COMPOSITION FOR TREATING TYPE II DIABETES” (LUMISTAR BIOTECHNOLOGY, INC., priority 2023, published 2025).

Tests used:
[1] = test system: MIN6 cells; assay: Insulin secretion by hINS-GLuc luciferase reporter in MIN6 β cells under high glucose; format: cell-based, mouse; conditions: 20 mM glucose; for insulin secretion compared to the DMSO control group (luminescence signals from secreted insulin): MIN6 cells, FIG. 4; for position among the top five compounds with significant increase in insulin secretion relative to high glucose stimulation: Table 2
Method: With the inclusion of a luciferase-tagged insulin construct, hINS-GLuc allows for rapid quantification of secreted insulin in the supernatant for drug screening, unlike the traditional method of measuring insulin via ELISA. This quantification is achieved by measuring the luminescence (relative light units, RLU) upon adding the luciferin of coelenterazine.
For measuring insulin secretion, the medium will first be removed, and MIN6 cells will then be rinsed in Krebs-Ringer buffer (119 mM NaCl, 4.74 mM KCl, 2.54 mM CaCl2), 1.19 mM MgSO4, 1.19 mM KH2PO4, 25 mM NaHCO3, 10 mM Hepes, and 0.1% BSA, pH 7.4) before incubation with or without 20 mM glucose in Krebs-Ringer buffer. Compounds will be added at a final concentration of 25 μM for two hours. At the end of the incubation period, the buffer will be removed, and the cells will then be briefly centrifuged, with the supernatant collected for measuring insulin secretion. Measurement of insulin secretion and C-peptide release will be performed using either an insulin or C-peptide ELISA kit (FIG. 1A), according to the manufacturer's instructions (Mercodia), or by measuring luminescence after adding luciferin (FIGS. 2A, 2B, and 4).
With the establishment of reporter platform in β cell lines, 50 drugs screening with compounds associated with pathways associated with metabolic diseases are conducted. This included inhibitor or agonist against Glucagon-like peptide-1 (GLP-1), Cytochrome c oxidase (COX), Phosphodiesterase (PDE), AMP activated protein kinase (AMPK), dipeptidyl peptidase-4 (DPP-4), calcium and potassium channels, 5-hydroxytryptamine (5-HT) or estrogen/progestogen receptors. As compounds can either “trigger” insulin secretion (i.e., in low glucose condition) or “amplify” insulin secretion (i.e., in high glucose condition). To mimic hyperglycemic condition, the compounds that may amplify insulin secretion under high glucose conditions have been chosen.
To enable this screen, we adapted a 96 well format with β cells plated 74 hours prior to compound challenge in triplicates. Post-stimulation, supernatant was aliquoted and transferred into at least 2 empty plates for either storage or luciferase measurement with the addition of coelenterazine.
FIG. 4 is a relative light unit graph depicting the ability of various 5-HT1A receptor antagonists to induce insulin secretion in MIN6 cells in the presence of a high concentration of glucose.

[2] = test system: MIN6 cells; assay: Single cell Ca2+ flux monitoring with K-GECO1 reporter; format: cell-based, mouse; conditions: 20 mM glucose and 25 μM WAY-100635 Maleate, FIG. 3C
Excerpt: One component of the reporter construct is a red fluorescent protein (RFP)-based Ca^2+ indicator (i.e., K-GECO1, reporter with an affinity for calcium ion) that is expressed within the cytoplasm. In this example, an inverted microscope (D1, Zeiss) equipped with a 63 Å˜objective lens (NA 1.4, Zeiss) and a multiwavelength LED light source (pE-4000, CoolLED) will be used. Blue (470 nm) and green (550 nm) excitation will be used to illuminate ChR2-EYFP and K-GECO1, respectively. The green fluorescent protein (GFP) filter set, and the red fluorescent protein (RFP) filter set will be used to confirm the expression of ChR2-EYFP and K-GECO1 in cells. […]
This allowed the detection of Ca^2+ influx into β cell as a consequence of calcium channel opening. β cells expressing the reporter construct were first stimulated with glucose (e.g., 20 mM glucose) to establish a baseline profile of Ca^2+ influx over time. […] FIG. 3A is the fluorescence intensity graph using the K-GECO1 reporter gene in Min6 cells to monitor glucose stimulation; and FIG. 3B is a representative image using the K-GECO1 reporter gene in Min6 cells after glucose stimulation. In FIG. 3A, the horizontal axis represents time (minutes), the vertical axis represents fluorescence intensity, and an arrow represents the point of stimulation and lines represent individual cells. […]

| Molecule | insulin secretion compared to the DMSO control group (luminescence signals from secreted insulin) [1] | Ca2+ influx profile (K-GECO1 fluorescence intensity) [2] | insulin secretion relative to high glucose stimulation alone (luminescence, RLU) ([1]; compound 25 μM, two hours, reporter expressing β cells, FIG. 2A) | position among the top five compounds with significant increase in insulin secretion relative to high glucose stimulation ([1]; compound 25 μM, two hours) |
| --- | --- | --- | --- | --- |
| CCC(=O)c1c(O)cc(O)cc1O [Flopropione] | did not show a significant increase | – | – | – |
| COc1ccccc1N1CCN(CCN(C(=O)C2CCCCC2)c2ccccn2)CC1.O=C(O)/C=C\C(=O)O [WAY-100635 maleate] | significantly increased | significant change in Ca^2+ influx profile | promotes insulin secretion | 3 |
| Cc1[nH]c(=O)c(C#N)cc1-c1ccncc1 [Milrinone] | – | – | – | 5 |
| O=c1c(O)c(-c2ccc(O)cc2)oc2cc(O)cc(O)c12 [Kaempferol] | – | – | – | 2 |
| CC(C)Cn1c(=O)n(C)c(=O)c2[nH]cnc21 [IBMX] | – | – | – | 4 |
| Exendin-4 | – | – | – | 1 |
| C[C@H](CN(C(=O)c1ccc(C#N)cc1)c1ccccn1)N1CCN(c2cccc3c2OCCO3)CC1 [Lecozotan] | did not show a significant increase | – | – | – |
